Source: patent publication US20240239788A1, “SMALL MOLECULE INHIBITORS OF KRAS G12D MUTANT” (Merck Sharp & Dohme LLC, priority 2021, published 2024)
Where a name gives a salt, the structure may show the parent alone. Read-outs that look alike come from different tables or passages of the source.

How the values were obtained:
[1] = target: KRAS protein containing G12D mutation (Homo sapiens (Human), UniProt P01116, G12D); assay: SOS-catalyzed nucleotide exchange assay (GNE), TR-FRET; type: biochemical; settings: biotinylated KRAS G12D, SOS and GTP, 60-minute incubation
Sequence of KRAS protein containing G12D mutation (P01116 other isoform, or with tags, fused parts or gaps G12D (already in the parent)): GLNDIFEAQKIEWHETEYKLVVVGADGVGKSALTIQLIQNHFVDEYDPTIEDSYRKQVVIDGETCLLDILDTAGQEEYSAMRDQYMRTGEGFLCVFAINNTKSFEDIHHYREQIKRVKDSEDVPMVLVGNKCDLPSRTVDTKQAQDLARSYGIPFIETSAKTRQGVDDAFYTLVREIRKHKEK
Description: Compounds are added to this complex and then after a 60-minute incubation time the mixture is treated with SOS and unlabeled GTP. Small molecule inhibitors stabilize the Bodipy-GDP complex whereas the untreated protein rapidly exchanges Bodipy-GDP for unlabeled GTP resulting in reduced TR-FRET signal.
This solution is referred to as biotinylated KRAS G12D stock solution.

[2] = system: AsPC-1 cells containing homozygous KRAS-G12D activating mutation; assay: Cellular phospho-ERK assay (Examples 1a-106); type: cell-based; settings: read-out: IC50 (nM) pERK (Cell)
Excerpt: 5% CO? overnight. […] Assay plates were read on a EnVision Multimode Plate Reader (PerkinElmer) and the ratio of p-Erk vs total Erk in each well was used as the final readout.

[3] = AsPC-1 cells, 2 hours, ratio of p-Erk vs total Erk
[4] = Homo sapiens, ASPC1, 2 h, AsPC-1 cells, 2 hours, ratio of p-Erk vs total Erk

Row | Compound | IC50 [1] [nM] | IC50 [2, 3] [nM] | IC50 [2, 4] [nM] | IC50 ([2]; Homo sapiens, ASPC1, 2 h) [nM] | IC50 ([2]; AsPC-1 cells, 2 hours, ratio of p-Erk vs total Erk, TFA) [nM]
1 | OCC1(COc2nc(N3CC4CCC(C3)N4)c3cc(F)c(-c4cc(O)cc5ccccc45)c(F)c3n2)CNC1 [Ex. 4, 4-(4-(3.8-diazabicyclo[3.2.1]octan-3-yl)-6,8-difluoro-2-((3-(hydroxymethyl)azetidin-3-yl)methoxy)quinazolin-7-yl)naphthalen-2-ol] | 169 | 50800 | – | – | –
2 | Cc1cc2[nH]nc(C)c2c(-c2c(F)cc3c(N4C[C@H]5CC[C@@](C)(C4)N5)nc(OC[C@@H]4C[C@@H](F)CN4C)nc3c2F)c1Cl [Ex 77, 7-(5-chloro-3,6-dimethyl-1H-indazol-4-yl)-6,8-difluoro-2-(((2S,4R)-4-fluoro-1-methylpyrrolidin-2-yl)methoxy)-4-((1S,5R)-1-methyl-3,8-diazabicyclo[3.2.1]octan-3-yl)quinazoline] | 792 | – | 5350 | – | –
3 | CN(C)CC1(COc2nc(N3CC4CC(O)C(C3)N4)c3cc(Cl)c(-c4cc(O)cc5ccccc45)c(F)c3n2)CC1 (single isomer, unassigned) [Example 22a, 3-(6-chloro-2-((1-((dimethyl-amino)methyl)cyclo-propy)methoxy)-8-fluoro-7-(3-hydroxy-naphthalen-1-yl)quinazolin-4-yl)-3,8-diazabicyclo[3.2.1]oc tan-6-ol] | 5090 | 50800 | – | – | –
4 | CC[C@@H]1[C@@H]2CC[C@@H](CN2)N1c1nc(OCC2(CN(C)C)CC2)nc2c(F)c(-c3cc(O)cc4ccccc34)c(F)cc12 [Example 10, 4-(2-((1-((dimethylamino)methyl)cyclopropyl)methoxy)-4-((1S,3R,4S)-3-ethyl-2,5-diazabicyclo[2,2,2]octan-2-yl)-6,8-difluoroquinazolin-7-yl)naphthalen-2-ol] | 2750 | – | 9830 | – | –
5 | Cc1c(Cl)cc2[nH]nc(C)c2c1-c1c(F)cc2c(N3CC4CCC(C3)N4)nc(OCC3(CN4CC[C@@H](F)C4)CC3)nc2c1F (single isomer, unassigned) [Ex 71b] | 1340 | 4240 | – | – | –
6 | Cc1c(Cl)cc2[nH]ccc2c1-c1c(F)cc2c(N3CC4CCC(C3)N4)nc(OCC3(CN(C)C)CC3)nc2c1F [Ex 73, 1-(1-(((4-(3,8-diazabicyclo[3.2.1]octan-3-yl)-7-(6-chloro-5-methyl-1H-indol-4-yl)-6,8-difluoroquinazolin-2-yl)oxy)methyl)cyclopropyl)-N,N-dimethylmethanamine] | 1250 | – | 14000 | – | –
7 | Cc1c(Cl)cc2[nH]nc(Cl)c2c1-c1c(F)cc2c(N3C[C@H]4CC[C@@](C)(C3)N4)nc(OCC3(CN4CC[C@@H](F)C4)CC3)nc2c1F [Ex 78, 7-(3,6-dichloro-5-methyl-1H-indazol-4-yl)-6,8-difluoro-2-((1-(((R)-3-fluoropyrrolidin-1-yl)methyl)cyclopropyl)methoxy)-4-((1S,5R)-1-methyl-3,8-diazabicyclo[3.2.1]octan-3-yl)quinazoline] | 1630 | – | 6370 | – | –
8 | CN(C)CC1(COc2nc(N3CC4NC(C3)C3CC43)c3cc(Cl)c(-c4cc(O)cc5ccccc45)c(F)c3n2)CC1 (stereo not drawn) [Example 30, 4-(6-chloro-2-((1-((dimethylamino)meth-yl)cyclopropyl)meth-oxy)-8-fluoro-4-(7,9-diazatri-cyclo[3.3.1.02,4]nonan-7-yl)quinazolin-7-yl)naphthalen-2-ol] | 7610 | – | 30100 | – | –
9 | CN(C)CC1(COc2nc(N3C[C@H]4CC[C@@H](C3)N4)c3cc(Cl)c(-c4cccc5cccc(C#N)c45)c(F)c3n2)CC1 [Example 60, 8-(4-((1R,5S)-3,8-diazabicyclo[3.2.1]octan-3-yl)-6-chloro-2-((1-((dimethylamino)methyl)cyclopropyl)methoxy)-8-fluoroquinazolin-7-yl)-1-naphthonitrile] | 1590 | – | – | 8760 | –
10 | Fc1c(-c2ccc(F)c3scnc23)c(Cl)cc2c(N3CC4CCC(C3)N4)nc(OCC3(CN4CCOCC4)CC3)nc12 [Example 53, 4-((1-(((4-(3,8-diazabicyclo[3.2.1]octan-3-yl)-6-chloro-8-fluoro-7-(7-fluorobenzo[d]thiazol-4-yl)quinazolin-2-yl)oxy)methyl)cyclopropyl)methyl) morpholine] | 2780 | – | 11000 | – | –
11 | C#Cc1cccc2cc(O)cc(-c3c(F)cc4c(N5C[C@H]6CC[C@@](C)(C5)N6)nc(OCC5(CN6CC[C@@H](F)C6)CC5)nc4c3F)c12 (single isomer, unassigned) [103b, TFA] | 458 | – | – | – | 2480
12 | Cc1cc2[nH]ncc2c(-c2c(F)cc3c(N4CC5CCC(C4)N5)nc(OCC4(CN(C)C)CC4(F)F)nc3c2F)c1C (single isomer, unassigned) [Example 66a, 1-(1-(((4-(3,8-diazabicyclo [3.2.1]octan-3-yl)-7-(5,6-dimethyl-1H-indazol-4-yl)-6,8-difluoroquinazolin-2-yl)oxy)methyl)-2,2-difluorocyclopropyl)-N,N-dimethylmethanamine] | 54 | – | 3460 | – | –
13 | Oc1cc(-c2c(F)cc3c(N4CC5CC(F)C(C4)N5)nc(OCC4(CN5CCOCC5)CC4)nc3c2F)c2ccccc2c1 (single isomer, unassigned) [Ex. 3b, 4-(6,8-difluoro-4-(6-fluoro-3,8-diazabicyclo[3.2.1]octan-3-yl)-2-((1-(morpholinomethyl)cyclopropyl)methoxy)quinazolin-7-yl)naphthalen-2-ol] | 2160 | 8240 | – | – | –
14 | Cc1cc2[nH]ncc2c(-c2c(F)cc3c(N4C[C@H]5CC[C@@](C)(C4)N5)nc(OCC4(CN5CC[C@@H](F)C5)CC4)nc3c2F)c1C(F)(F)F (single isomer, unassigned) [Ex 80b] | 1320 | 5970 | – | – | –
15 | Cc1cc2[nH]ncc2c(-c2c(F)cc3c(N4CC5CCC(C4)N5)nc(OCC4(CN(C)C)CC4(F)F)nc3c2F)c1C (single isomer, unassigned) [Example 66b, 1-(1-(((4-(3,8-diazabicyclo [3.2.1]octan-3-yl)-7-(5,6-dimethyl-1H-indazol-4-yl)-6,8-difluoroquinazolin-2-yl)oxy)methyl)-2,2-difluorocyclopropyl)-N,N-dimethylmethanamine] | 31.1 | 2120 | – | – | –
16 | CN(C)C[C@@]1(COc2nc(N3C[C@H]4CC[C@@](C)(C3)N4)c3cc(Cl)c(-c4c(F)cc(F)c5ccc(N)nc45)c(F)c3n2)CC1(F)F (single isomer, unassigned) [92a] | 11100 | 13200 | – | – | –
17 | CN(C)CC1(COc2nc(N3CC4CCC(C3)N4)c3cc(Cl)c(-c4c5ccccc5cc5[nH]c(=O)[nH]c45)c(F)c3n2)CC1 [Example 46, 4-(4-(3,8-diazabicyclo[3.2.1]octan-3-yl)-6-chloro-2-((1-((dimethylamino)methyl)cyclopropyl)methoxy)-8-fluoroquinazolin-7-yl)-1,3-dihydro-2H-naphtho[2,3-d]imidazol-2-one] | 9340 | – | 50800 | – | –
18 | NC(=O)C1(COc2nc(N3CC4CCC(C3)N4)c3cc(F)c(-c4cc(O)cc5ccccc45)c(F)c3n2)CNC1 [Example 15, 3-(((4-(3.8-diazabicyclo[3.2.1]octan-3-yl)-6,8-difluoro-7-(3-hydroxynaphthalen-1-yl)quinazolin-2-yl)oxy)methyl)azetidine-3-carboxamide] | 2140 | – | 50800 | – | –
19 | Oc1cc(-c2c(F)cc3c(N4CC5CCC(C4)N5)nc(N4CC5(CCCN5)C4)nc3c2F)c2ccccc2c1 [Example 14, 4-(4-(3.8-diazabicyclo[3.2.1]octan-3-yl)-6,8-difluoro-2-(2,5-diazaspiro[3.4]octan-2-yl)quinazolin-7-yl)naphthalen-2-ol] | 1570 | – | 24000 | – | –
20 | Cc1cc2[nH]ncc2c(C2Cc3nc(OC[C@]4(CN(C)C)CC4(F)F)nc(N4C[C@H]5CC[C@@](C)(C4)N5)c3C(=O)O2)c1C(F)(F)F (single isomer, unassigned) [Ex. 96a] | 1280 | 20800 | – | – | –
21 | Cc1cc(N)nc(-c2c(F)cc3c(N4CC5CCC(C4)N5)nc(OCC4(CN5CCOCC5)CC4)nc3c2F)c1Cl [Ex 88, 6-(4-((1R,5S)-3,8-diazabicyclo[3.2.1]octan-3-yl)-6,8-difluoro-2-((1-(morpholinomethyl)cyclopropy)methoxy)quinazolin-7-yl)-5-chloro-4-methylpyridin-2-amine] | 1350 | – | 13200 | – | –
22 | CN(C)CC1(COc2nc(N3CC4CC(C)(O)C(C3)N4)c3cc(F)c(-c4cc(O)cc5ccccc45)c(F)c3n2)CC1 (stereo not drawn) [Example 27, 3-(2-((1-((dimethylamino)meth-yl)cyclopro-pyl)methoxy)-6,8-difluoro-7-(3-hydroxynaphthalen-1-yl)quinazolin-4-yl)-6-methyl-3,8-diazabicyclo [3.2.1]octan-6-ol] | 496 | – | 22500 | – | –
23 | Oc1cc(-c2c(Cl)cc3c(N4CC5NC(C4)C(O)C5O)nc(OCC4(CN5CCOCC5)CC4)nc3c2F)c2ccccc2c1 (stereo not drawn) [Ex. 1a, 3-(6-chloro-8-fluoro-7-(3-hydroxynaphthalen-1-yl)-2-((1-(morpholinomethyl)cyclopropyl)methoxy)quinazolin-4-yl)-3,8-diazabicyclo[3.2.1]octane-6,7-diol] | 742 | – | 14600 | – | –
24 | CN(C)C1CC[C@H]2C[C@@]12COc1nc(N2C[C@H]3CC[C@@](C)(C2)N3)c2cc(F)c(-c3cc(O)cc4ccccc34)c(F)c2n1 (single isomer, unassigned) [Example 12b] | 2.07 | 841 | – | – | –
